Molecules are shown by their SMILES. ≈ marks a conversion by molar mass, not a printed value. Read-outs that look alike come from different tables or passages of the source.

The test system of assay [1] is visna virus. Kind of assay: Inhibition of visna virus growth, plaque reduction assay in sheep choroid plexus (SCP) cells (Method A). Type of assay: cell-based. An excerpt:
Inhibitory activity against visna virus was shown by a conventional plaque reduction assay. Visna virus, a lentivirus genetically very similar to the AIDS virus, is pathogenic for sheep and goats. See Sonigo et al., Cell 42, 369-382 (1985); Haase, Nature 322, 130-136 (1986). Inhibition of visna virus replication in vitro as a useful model for HIV and its inhibition by test compounds has been described by Frank et al., Antimicrobial Agents and Chemotherapy 31 (9), 1369-1374 (1987).
(§1) Various illustrative compounds synthesized above were tested for inhibition of visna virus in vitro in a plaque reduction assay (Method A) or for inhibition of HIV-1 in a test which measured reduction of cyto-pathogenic effect in virus-infected syncytium-sensitive Leu-3a-positive CEM cells grown in tissue culture (Method B) as follows:
Sheep choroid plexus (SCP) cells were obtained from American Type Culture Collection (ATCC) catalogue number CRL 1700 and were routinely passaged in vitro in Dulbecco's Modified Eagles (DME) medium supplemented with 20% fetal bovine serum (FBS). SCP cells were passaged once per week at a 1:2 or 1:3 split ratio. Visna was titrated by plaque assay in six-well plates. Virus pools were stored at -70° C.
SCP cells were cultured in 6-well plates to confluence. Wells were washed two times with serum free Minimal Essential Medium (MEM) to remove FBS. 0.2 ml of virus was added per well in MEM supplemented with 4 mM glutamine and gentamycin. After 1 hour adsorption, the virus was aspirated from each well. The appropriate concentration of each compound in 5 ml of Medium 199 (M-199) supplemented with 2% lamb serum, 4 mM glutamine, 0.5% agarose and gentamycin was added to each well. Cultures were incubated at 37° C. in a humidified 5% CO2 incubator for 3-4 weeks. To terminate the test, cultures were fixed in 10% formalin, the agar removed, the monolayers stained with 1% crystal violet and plaques counted. Each compound concentration was run in triplicate. […] 0 is no toxicity observed while 4 is total lysing of the cell monolayer. […]
Control wells without virus were completed to determine the toxicity of compounds.
Background: Plaque reduction counts the foci of infection that form in a cell layer.

Assay [2] concerns HIV-1. Kind of assay: Anti-HIV activity: inhibition of HIV-1 induced cytopathic effect in CEM cells, MTT (Method B). Type of assay: cell-based, strain HTVL-IIIB. Conditions: Human immunodeficiency virus 1, CCRF-CEM, CEM cells, Table 2. How it is done: Inhibitory activity against HIV-1 was shown by tests involving plating of susceptible human host cells which are syncytium-sensitive with and without virus in microculture plates, adding various concentrations of the test compound, incubating the plates for 7 to 9 days (during which time infected, non-drug treated control cells are largely or totally destroyed by the virus), and then determining the remaining number of viable cells with a colorometric endpoint.
as §1
Tissue culture plates were incubated at 37° C. in a humidified, 5% CO2 atmosphere and observed microscopically for toxicity and/or cytopathogenic effect (CPE). At 1 hour prior to infection each test article was prepared from the frozen stock, and a 20 μl volume of each dilution (prepared as a 10 X concentration) was added to the appropriate wells of both infected and uninfected cells.
Assays were done in 96-well tissue culture plates. CEM cells were treated with polybrene at a concentration of 2 μg/ml, and an 80 μl volume of cells (1×10^4 cells) was dispensed into each well. A 100 μl volume of each test article dilution (prepared as a 2 X concentration) was added to 5 wells of cells, and the cells were incubated at 37° C. for 1 hour. A frozen culture of HIV-1, strain HTVL-IIIB, was diluted in culture medium to a concentration of 5×10^4 TCID50 per ml, and a 20 μl volume (containing 10^3 TCID50 of virus) was added to 3 of the wells for each test article concentration. […] A 20 μl volume of normal culture medium was added to the remaining wells to allow evaluation of cytotoxicity. Each plate contained 6 wells of untreated, uninfected, cell control samples and 6 wells of untreated, infected, virus control samples.
On the 9th day post-infection, the cells in each well were resuspended and a 100 μl sample of each cell suspension was removed for use in an MTT assay. A 20 μl volume of a 5 mg/ml solution of 3-(4,5-dimethylthiazol-2-yl)-2,5-diphenyltetrazolium bromide (MTT) was added to each 100 μl cell suspension, and the cells were incubated at 37° C. in 5% CO2 for 4 hours. […] A 100 μl volume of a solution of 10% sodium dodecyl sulfate in 0.01 N hydrochloric acid was added to each sample, and the samples were incubated overnight. The absorbance at 590 nm was determined for each sample using a Molecular Devices Vmax microplate reader. This assay detects drug-induced suppression of viral CPE, as well as drug cytotoxicity, by measuring the generation of MTT-formazan by surviving cells.

Assay [3] addresses T1, α-Glucosidase (yeast) (Saccharomyces cerevisiae, UniProt P53341).
T1 construct: purchased Sigma
As to the kind of experiment: Alpha-glucosidase (yeast) inhibition assay, pH 7.4. In kind it is biochemical. As to the method:
(§2) Yeast alpha-glucosidase and almond beta-glucosidase activities were measured by a modification of the method of Evans, et al., Phytochemistry 22, 768-770 (1983). The modifications included (1) assay of activities at pH 7.4 in HEPES (N-2-hydroxyethylpiperazine-N'-2-ethanesulfonic acid) buffer, 2) measurement in 96 well microtiter plates and (3) inclusion of 10% DMSO in control and test samples.
(§3) The release of p-nitrophenol from the substrate p-nitrophenylglycoside was measured spectrophotometrically in the presence and absence of test compound. Each assay included a known inhibitor of the enzyme as a standard. IC50 values were determined for compounds which inhibited the enzymes more than 50% at a 1 millimolar concentration.
(§4) To 100 μl 50 mM HEPES buffer, pH 7.4, in a microtiter plate, add 20 μl test compound in DMSO (DMSO alone in control), 40 μl (0.013 units) yeast alpha-glucosidase (Sigma) in HEPES buffer and pre-incubate at room temperature for 15 minutes. Add 40 μl 1.25 mM p-nitrophenyl-alpha-D-glucopyranoside (Sigma) in HEPES buffer, as substrate, and monitor absorbance change at 405 nm in a Biotek EIA Autoreader. Absorption change was measured at 15 to 25 minutes (reaction was linear for at least 30 minutes). Each sample was tested in triplicate. IC50 values were determined from the linear portion of the log concentration vs % inhibition curve obtained from a minimum of 3 points. Deoxynojirimycin was used as standard inhibitor.

Assay [4] relates to β-Glucosidase (almond). As to the kind of experiment: Beta-glucosidase (almond) inhibition assay, pH 7.4. Type of assay: biochemical. As to the method: as §2, §3
as §4, with “μl (0.136” for “μl (0.013”, “units) beta-glucosidase” for “units) yeast alpha-glucosidase”, “mM p-nitrophenyl-beta-D-glucopyranoside” for “mM p-nitrophenyl-alpha-D-glucopyranoside (Sigma)”, “as substrate” for “as substrate,”, “(reaction is” for “(reaction was”, “points. Castanospermine” for “points. Deoxynojirimycin”

The test system of assay [5] is β-Glucosidase (almond). Kind of assay: Beta-glucosidase (almond) inhibitor assay, pH 4.8. In kind it is biochemical. How it is done:
as §2, §3
To 100 μl 50 mM sodium citrate buffer, pH 4.8, in a microtiter plate, add 15 μl test compound in DMSO (DMSO alone in control), 20 μl (0.017 units) beta-glucosidase (Sigma) in citrate buffer and pre-incubate at room temperature for 15 minutes. Add 25 μl 2.50 mM p-nitrophenyl-beta-D-glucopyranoside in citrate buffer, as substrate. Incubate at room temperature 20 minutes (reaction is linear for at least 30 minutes). Add 50 μl 0.4 M NaOH. Read absorption change at 405 nm in a Biotek EIA Autoreader. Each sample was tested in triplicate. IC50 values were determined from the linear portion of the log concentration vs % inhibition curve obtained from a minimum of 3 points. Castanospermine was used as standard inhibitor.

Setting [6] is: pH 7.4, read-out: Percent inhibition of α-glucosidase (yeast).
The mark [7] stands for this setting: 100 μM, pH 7.4, read-out: Percent inhibition of α-glucosidase (yeast).
The mark [8] stands for this setting: 1000 μM, pH 7.4, read-out: Percent inhibition of α-glucosidase (yeast).

T1 sequence (P53341 whole entry): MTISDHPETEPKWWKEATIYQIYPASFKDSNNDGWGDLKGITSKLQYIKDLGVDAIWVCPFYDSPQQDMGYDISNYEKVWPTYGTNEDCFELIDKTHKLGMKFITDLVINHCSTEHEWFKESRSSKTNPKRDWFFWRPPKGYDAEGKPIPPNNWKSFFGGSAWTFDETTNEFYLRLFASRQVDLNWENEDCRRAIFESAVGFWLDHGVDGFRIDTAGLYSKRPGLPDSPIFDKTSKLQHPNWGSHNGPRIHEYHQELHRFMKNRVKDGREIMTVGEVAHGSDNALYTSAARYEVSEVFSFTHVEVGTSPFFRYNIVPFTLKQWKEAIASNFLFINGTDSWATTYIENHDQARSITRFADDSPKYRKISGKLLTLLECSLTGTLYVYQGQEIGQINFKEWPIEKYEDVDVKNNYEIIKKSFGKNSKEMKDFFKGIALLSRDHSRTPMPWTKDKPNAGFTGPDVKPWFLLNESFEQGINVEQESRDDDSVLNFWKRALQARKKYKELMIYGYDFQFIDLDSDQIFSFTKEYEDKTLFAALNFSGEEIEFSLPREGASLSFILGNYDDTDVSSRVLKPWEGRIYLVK

In general, EC50 refers to the concentration at which the effect is half-maximal. Broadly, the inhibition is the relative decrease from the control value, in per cent. `CCCCCCN1C[C@H](Cl)[C@@H](O)[C@H](O)[C@H]1CO` [Example 28, 2-Chloro-1,2,5-trideoxy-1,5(hexylimino)-D-glucitol]: the “% inhibition of visna virus growth” value in assay [1] (0.001 mM) was determined as 6%; in assay [1] (0.01 mM), 61%; in assay [1] (0.1 mM) it was 100%; in assay [1] (1.0 mM), 100%. The EC50 in assay [2] (read-out: Anti-HIV activity, inhibition of virus induced cytopathic effect, EC50) was 11 µg/mL (≈ 41.4 µM). Further, the inhibition at 1 µM in assay [3] (setting [6]) is 4%. Also, in assay [3] (setting [6]), the inhibition at 10 µM came out at 37.6%. For the same compound, in assay [3] (setting [6]), the inhibition at 100 µM was 82.9%. Besides, the inhibition at 1000 µM in assay [3] (setting [6]) stood at 95.5%. Further, the “Percent inhibition of β-glucosidase (almond)” value (from here on “Percent inhibition”) in assay [4] (100 μM) was found to be 62.9%; in assay [4] (1000 μM) it was 90%; in assay [5] (100 μM), 43.7%; in assay [5] (1000 μM) it was 84%.
Regarding `CCCCCCCCCN1C[C@H](Cl)[C@@H](O)[C@H](O)[C@H]1CO` [Example 29, 2-Chloro-1,2,5-trideoxy-1,5-(nonylimino)-D-glucitol], the “% inhibition of visna virus growth” value in assay [1] (0.001 mM) is recorded as 23%; in assay [1] (0.01 mM) it was 53%; in assay [1] (0.1 mM), 100%. In addition, the inhibition at 1 µM in assay [3] (setting [6]) is 11.5%. Also, the inhibition at 10 µM in assay [3] (setting [6]) amounted to 61.5%. Also, the inhibition at 100 µM in assay [3] (setting [6]) was found to be 91.8%. Besides, the inhibition at 1000 µM in assay [3] (setting [6]) is 102%. The “Percent inhibition” value in assay [4] (100 μM) was 54.7%; in assay [4] (1000 μM), 91.9%; in assay [5] (100 μM), 33.1%; in assay [5] (1000 μM), 52.8%.
Regarding `OC[C@@H]1[C@@H](O)[C@H](O)[C@@H](Cl)CN1CCCc1ccccc1` [Example 30, 2-Chloro-1,2,5-trideoxy-1,5-(3-phenyl)propylimino-D-glucitol], the “% inhibition of visna virus growth” value in assay [1] (0.001 mM) is 20%; in assay [1] (0.01 mM), 57%; in assay [1] (0.1 mM) it was 97%; in assay [1] (1.0 mM) it was 100%. The inhibition at 1 µM in assay [3] (setting [6]) is 4.6%. Further, in assay [3] (setting [6]), the inhibition at 10 µM was 46.4%. Besides, the inhibition at 100 µM in assay [3] (setting [6]) amounted to 87.3%. Moreover, in assay [3] (setting [6]), the inhibition at 1000 µM was found to be 97.5%. In addition, the “Percent inhibition” value in assay [4] (100 μM) stood at 66.2%; in assay [4] (1000 μM), 92.5%; in assay [5] (100 μM), 47.6%; in assay [5] (1000 μM) it was 84.7%.
On to `CCCCNC(=O)O[C@H]1CN(CCCC)[C@H](CO)[C@@H](O)[C@@H]1O` [Example 36], for which the inhibition at 1000 µM in assay [1] (Visna-maedi virus, 1.0 mM) is 21%; in assay [3] (setting [8]), -6.8%. Further, the inhibition at 100 µM in assay [3] (setting [7]) was determined as 11%. Moreover, the “Percent inhibition” value is -2.4% in assay [4] (100 μM), 0.3% in assay [4] (1000 μM), 4.3% in assay [5] (100 μM) and 3.1% in assay [5] (1000 μM).
On to `CCCCN1[C@H](CO)[C@@H](O)[C@H](O)[C@H]1CN=[N+]=[N-]` [Example 47, 1-Azido-2,5-(butylimino)-1,2,5-trideoxy-D-mannitol], for which the inhibition at 500 µg/mL in assay [2] (500 μg/mL, read-out: Anti-HIV activity, % inhibition of virus induced cytopathic effect) was 36%. Also, the inhibition at 100 µM in assay [3] (setting [7]) was 22.7%. Further, the inhibition at 1000 µM in assay [3] (setting [8]) came out at 24.8%. Moreover, the “Percent inhibition” value is -4.1% in assay [4] (100 μM), 6.7% in assay [4] (1000 μM), 11.2% in assay [5] (100 μM) and 32.6% in assay [5] (1000 μM).

These data come from patent publication US5612480A, “2-chloro and 2-bromo derivatives of 1,5-iminosugars” (priority 1995, dated 1997).
